“And” between values parts separate entries of the source, which are not always exact repeats. Equal values may be shown once. “Also recorded” adds a separate entry of the source.
Assays:
carp = settings: immersion; cited from earlier work
[1] = biological target: T1, GABAA receptors (human α1 GABRA1 and rat β2 GABRB2 subunits) (UniProt P14867+P63138); test: Two-electrode voltage clamp of GABAA receptors expressed in Xenopus oocytes; format: cell-based; settings: for effect on GABAA receptor currents: dose-response, oocytes
T1 construct: expressed in transfected cells; host or cells: Xenopus laevis oocytes (intranuclear DNA injection)
Description: Ovaries removed from sexually mature Xenopus laevis frogs were bluntly dissected to remove surrounding connective tissue and then digested with 0.2% type I collagenase in an oocyte Ringer's solution. Once free from thecal cells and connective tissue, individual oocytes were rinsed, sorted, and stored in a modified Barth's solution (R. Brosnan et al., […]. 103, (2006): 86; L. Yang, P. S. Milutinovic, […]. Sonner, […]. 105, (2007): 393; […]. Fukushima, & […]. 44, (2017): 577; […], Pharmacology 103, (2019): 10). Heteromeric GABAA receptors were expressed in oocytes by blind intranuclear injection of 1 ng DNA encoding the human al (GABRA1) and rat B2 (GABRB2) subunits in a 1:1 ratio. NMDA receptors were expressed by intracytoplasmic injection of 5 ng RNA encoding rat NR1 (GRIN1) and rat NR2a (GRIN2A) subunits in a 1:1 ratio. Nax 1.2 channels were expressed by injection of 5 ng RNA encoding the human SCN2A gene. Two-electrode voltage clamp studies of GABAA receptors were carried out in a 0.25-mL linear perfusion chamber. Perfusates were delivered by using a syringe pump at 1.5 mL/min using gastight glass syringes and polytetrafluoroethylene tubing. […] King Precision Glass, Claremont, CA, USA) connected to separate […] (Axon Instruments HS2A; Molecular Devices, San Jose, CA, USA) through which voltage was clamped at -80 mV and current was passed via a computer-controlled amplifier (Axon Instruments GeneClamp 500B; Molecular Devices). Oocytes were perfused with frog Ringer's (FR) solution containing 115 mM NaCl, 2.5 mM KCl, 1.8 mM CaCl2), and 10 mM HEPES prepared from ACS-grade chemicals and 18.2 MΩ H2O, filtered and pH adjusted to 7.4. […] After 30 s, the perfusate was switched back to FR solution. This process was repeated until a stable baseline response was achieved. Next, FR containing either L-carvone (99%; Sigma-Aldrich, St. Louis, MO, USA) or methyl salicylate (>99%; Sigma-Aldrich) at the test concentration was used to perfuse the oocyte for 1.5 min, and then the oocyte was perfused with FR+GABA solution containing this same drug and concentration for 30 s. […] Uninjected oocytes served as negative controls. Only one drug and concentration were studied per oocyte. […] Percent change in current was calculated as follows: [formula] • where IB is the baseline pre-drug current peak and ID is the drug current peak. For each drug and ion channel, data were fit to a Hill equation using nonlinear regression with sequential quadratic programming and bootstrap estimates of parameter standard errors (SPSS, v. 27; IBM, Armonk, NY, USA). In the model, maximum drug inhibition (Imax) was constrained to not be less than -100%. Initial parameter estimates were seeded with values based on visual inspection of respective dose-response curves in order to facilitate model convergence.

[2] = Plasma concentration during IV infusion anesthesia (LC-MS); format: in vivo, rat
Description: (§1) Lateral tail veins were catheterized in eight, 70-day-old, male, Sprague Dawley rats weighing 309±6 g. A 10% solution of L-carvone or methyl salicylate in 20% […]® was each administered IV to 8 rats (4 animals per drug treatment) by using a syringe pump at a rate of 12 mL/h. When rats lost their righting reflex and were unresponsive to a tail clamp, a midline laparotomy was performed, the abdominal aorta catheterized, and the rat exsanguinated. Blood was collected in a heparin tube and centrifuged; plasma was separated and stored in cryogenic tubes at −80° C. until analysis.
Serum calibrations were prepared by dilution of working standard solutions of methyl salicylate and L-carvone with drug-free rat serum (Innovative Research, Novi, MI, USA) to concentrations ranging from 0.05 to 500 μg/mL. Calibration curves and negative control samples were prepared fresh for each quantitative assay. In addition, quality control samples (drug-free rat serum fortified with analyte at 3-4 concentrations within the standard curve) were included as an additional check of accuracy.
Prior to analysis, 100 μL of each serum sample was diluted with 100 μL of acetonitrile (ACN):1 M acetic acid (9:1, v:v) and 50 μL of methanol to precipitate proteins. The samples were vortexed for 2 min to mix, refrigerated for 20 min, vortexed for an additional 1 min, centrifuged (4,300 rpm/3, 102 g) for 10 min at 4 °C, and 10 μL injected into the liquid chromatography tandem mass spectrometry system.
Quantitative analysis was performed on an LTQ XL Orbitrap mass spectrometer (Thermo Scientific, San Jose, CA, USA) coupled with a Waters Acquity UPLC (Milford, MA, USA). […] Detection and quantification were conducted using full-scan accurate mass from 145 to 160 (m/z). […]
The precision and accuracy of the assay was determined by assaying quality control samples in replicates (n=6). […] The technique was optimized to provide limits of quantitation of 0.5 μg/mL and 0.05 μg/mL and limits of detection of approximately 0.1 μg/mL and 0.025 μg/mL for methyl salicylate and L-carvone, respectively.

[3] = cited from earlier work
Sprague Dawley rats = test: Continuous IV infusion anesthesia; format: in vivo, rat; settings: for time after start of injection to loss-of-righting and absent tail clamp response: continuous 0.2 mL/min IV infusion of 10% emulsion
Description: as §1

rat sciatic nerves = settings: read-out: IC50, decrease of compound action potentials; cited from earlier work
[4] = biological target: T2, human benzodiazepine-sensitive α1β2γ2s GABAA receptors (Homo sapiens, UniProt P14867+P18507+P47870); settings: concentrations up to 0.12 mM; cited from earlier work
T2 construct: host or cells: frog oocytes

[5] = at the mean plasma concentration during IV infusion anesthesia in rats

T1 sequence (P14867 28-456): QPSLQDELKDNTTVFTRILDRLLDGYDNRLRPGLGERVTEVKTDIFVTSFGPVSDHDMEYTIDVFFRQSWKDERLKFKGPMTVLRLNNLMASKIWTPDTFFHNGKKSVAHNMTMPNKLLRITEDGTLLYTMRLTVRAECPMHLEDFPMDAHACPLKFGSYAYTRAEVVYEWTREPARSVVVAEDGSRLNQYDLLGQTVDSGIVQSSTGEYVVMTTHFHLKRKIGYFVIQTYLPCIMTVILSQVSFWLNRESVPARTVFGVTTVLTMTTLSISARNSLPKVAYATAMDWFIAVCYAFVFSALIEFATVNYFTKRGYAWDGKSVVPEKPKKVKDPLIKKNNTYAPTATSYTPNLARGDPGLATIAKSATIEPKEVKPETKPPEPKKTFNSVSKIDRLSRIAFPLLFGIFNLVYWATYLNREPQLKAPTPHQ
T1 sequence (P63138 25-474 limits assumed): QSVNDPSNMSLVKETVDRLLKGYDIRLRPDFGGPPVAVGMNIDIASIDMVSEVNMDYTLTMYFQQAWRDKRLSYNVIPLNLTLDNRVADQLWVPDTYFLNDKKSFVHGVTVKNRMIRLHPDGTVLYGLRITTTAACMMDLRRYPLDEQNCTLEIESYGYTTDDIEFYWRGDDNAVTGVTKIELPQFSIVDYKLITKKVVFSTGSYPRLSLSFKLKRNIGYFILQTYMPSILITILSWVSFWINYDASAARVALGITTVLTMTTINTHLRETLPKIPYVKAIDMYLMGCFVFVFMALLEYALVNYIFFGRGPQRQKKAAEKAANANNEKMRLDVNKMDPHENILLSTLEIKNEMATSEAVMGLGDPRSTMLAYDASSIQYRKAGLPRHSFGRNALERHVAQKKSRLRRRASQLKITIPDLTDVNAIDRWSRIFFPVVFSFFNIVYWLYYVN
T2 sequence (P14867 28-456): as the sequence (P14867 28-456) above
T2 sequence (P47870 26-474 isoform P47870-1 limits assumed): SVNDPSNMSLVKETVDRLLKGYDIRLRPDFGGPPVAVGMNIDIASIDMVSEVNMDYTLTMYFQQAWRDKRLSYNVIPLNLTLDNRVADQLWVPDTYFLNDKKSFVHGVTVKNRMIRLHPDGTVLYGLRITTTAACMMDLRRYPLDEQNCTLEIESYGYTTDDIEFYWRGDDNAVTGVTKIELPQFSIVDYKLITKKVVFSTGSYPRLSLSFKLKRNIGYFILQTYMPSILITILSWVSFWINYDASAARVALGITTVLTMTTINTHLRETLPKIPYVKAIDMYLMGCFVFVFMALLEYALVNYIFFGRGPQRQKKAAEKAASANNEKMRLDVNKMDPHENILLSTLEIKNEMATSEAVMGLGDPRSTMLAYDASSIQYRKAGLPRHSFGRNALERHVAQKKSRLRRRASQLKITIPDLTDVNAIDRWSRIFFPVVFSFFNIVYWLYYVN
T2 sequence (P18507 40-467 isoform P18507-1 limits assumed): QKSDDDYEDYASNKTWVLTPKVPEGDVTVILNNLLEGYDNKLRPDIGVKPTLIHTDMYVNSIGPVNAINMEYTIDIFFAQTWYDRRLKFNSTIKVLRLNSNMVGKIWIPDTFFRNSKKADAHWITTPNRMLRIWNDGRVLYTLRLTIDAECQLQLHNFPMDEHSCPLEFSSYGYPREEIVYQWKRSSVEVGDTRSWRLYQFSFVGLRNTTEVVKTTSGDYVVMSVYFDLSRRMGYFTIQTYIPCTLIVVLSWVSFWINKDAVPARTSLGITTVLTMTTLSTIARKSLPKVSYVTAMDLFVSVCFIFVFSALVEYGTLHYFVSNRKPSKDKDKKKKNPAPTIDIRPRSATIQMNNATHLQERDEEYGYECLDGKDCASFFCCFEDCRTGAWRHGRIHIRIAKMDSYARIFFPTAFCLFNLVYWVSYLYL

| Compound | bath concentration causing anesthesia (carp) [mM] | potentiation of GABAA receptors [1, 5] [%] | effect on GABAA receptor currents [1] | IC50 ([1]; high-affinity inhibitory site, 50 μM GABA, oocytes clamped at −80 mV, read-out: IC50, inhibition of GABAA receptor currents) | Hill coefficient, GABAA receptor potentiation site ([1]; low-affinity binding) | concentration for second positive allosteric GABAA site relative to high-affinity site ([1]; potentiation site vs inhibitory site) | EC50 ([1]; second site, high concentrations, read-out: median effective concentration, potentiation of GABAA currents) [µM] | mean plasma concentration (±SEM) during IV infusion ([2]; male, Sprague Dawley, rat, in vivo, iv) [µM] | solubility in water relative to cutoff values for modulation of the 3 ion channels [3] | time after start of injection to loss-of-righting and absent tail clamp response (Sprague Dawley rats) [min] | excitement after injection (Sprague Dawley rats; rat, in vivo, iv) | tonic or clonic muscle activity (Sprague Dawley rats; rat, in vivo, iv) | IC50 (rat sciatic nerves) [µM] | GABAA receptor current at highest concentration ([1]; 10 mM drug) | inhibition of GABAA receptors [1, 5] [%] | Hill coefficient, GABAA receptor inhibition ([1]; dose-response model) | plasma concentration relative to that for methyl salicylate ([2]; at the time general anesthesia was achieved) [times] | mean plasma concentration (±SEM) during IV infusion ([2]; rats N=4, at loss of righting reflex and tail clamp response) [µM] | response of α1β2γ2s GABAA receptors [4] | tonic or clonic muscle activity (Sprague Dawley rats; continuous 0.2 mL/min IV infusion) |
| --- | --- | --- | --- | --- | --- | --- | --- | --- | --- | --- | --- | --- | --- | --- | --- | --- | --- | --- | --- | --- |
| COC(=O)c1ccccc1O [methyl salicylate] | 0.8 to 2.3 | 30 | potently inhibited; also recorded: biphasic effect | 0.11 µM and ~0.1 µM | less than 1 | about 50,000 times | 5300 | 2700 ± 400 | more soluble in water than the cutoff values | 3 to 4 | transient excitement in half of the animals | No tonic or clonic muscle activity | – | – | – | – | – | – | – | – |
| L-carvone | 1.9 to 4.5 | – | dose-dependent inhibition | – | – | – | – | – | – | 2 to 4 | – | – | 8700 | near or complete loss of channel currents; also recorded: almost entirely inhibited | 96 | ~1 | 3 | 7900 ± 3000 | minimal response | tonic muscle contractions suggestive of seizure |

Source: patent US20240226034A1, “Use of Terpenoids and Salicylates as Anesthetics and Analgesics” (THE REGENTS OF THE UNIVERSITY OF CALIFORNIA, priority 2021, published 2024)
